Among the data in patent US20240287172A1, “PROTEIN BINDERS TO IRHOM2 EPITOPES” (SCIRHOM GMBH, priority 2019, published 2024) are inhibition values, retold here.

Assay [1] relates to PMA-induced release of endogenous TGFα from human PC3 prostate cancer cells. Briefly: ELISA-based TGFα release assay, PMA-induced, PC3 cells. The assay is classed as cell-based. The note with it: PC-3, PMA 25 ng/ml, 2 hours, recombinant murine antibodies and IgG at 1 μg/ml, Batimastat at 10 μM. As for the experimental part: In brief, on day 1, Nunc black MaxiSorp® 96-well plates (Thermo Fisher Scientific, USA) were coated overnight with 100 μl per well of goat anti-human TGFα capture antibody (provided as part of the DuoSet ELISA kit) at 0.4 μg/ml TBS at 4° C. On day 2, the capture antibody solution was removed and MaxiSorp® plates were blocked with 300 μl per well of TBS, 1% BSA at room temperature for 3 hours. Meanwhile, 100,000 PC3 (European Collection of Authenticated Cell Cultures, UK) cells in 80 μl of normal growth medium were seeded in each well of F-bottom 96-well cell culture plates (Coming, USA) and pre-incubated with 20 μl per well of OptiMEM medium supplemented with Batimastat (BB94, Abcam, UK) at 50 μM as positive control (for a final concentration of 10 μM in the resulting 100 μl sample volume), mouse IgG antibody (Thermo Fisher Scientific, USA) at 5 μg/ml as isotype control (for a final concentration of 1 μg/ml in the resulting 100 μl sample volume) or antibodies of the invention at 5 μg/ml (for a final concentration of 1 μg/ml in the resulting 100 μl sample volume) at 37° C., 5% CO2 for 30 minutes. In case of stimulation controls, 20 μl of OptiMEM medium without test articles were added. […] Using an infinite M1000 (Tecan Group, Switzerland) microplate reader, the fluorescence of each well was collected at an excitation wavelength of 435 nm and an emission wavelength of 555 nm.

The test system of assay [2] is PMA-induced release of endogenous HB-EGF from PBMCs from healthy donors. Briefly: ELISA-based HB-EGF release assay, PMA-induced, PBMCs from healthy donors. The assay is classed as cell-based. The conditions noted are these: Homo sapiens, PBMC; PMA 25 ng/ml, 6 hours; recombinant murine antibodies and IgG at 1 μg/ml; Batimastat at 10 μM. On the procedure:
In brief, on day 1, Nunc black MaxiSorp® 96-well plates (Thermo Fisher Scientific, USA) were coated overnight with 100 μl per well of mouse anti-human HB-EGF capture antibody (provided as part of the DuoSet ELISA kit) at 4 μg/ml TBS at 4° C. On day 2, the capture antibody solution was removed and MaxiSorp® plates were blocked with 300 μl per well of TBS, 1% BSA at room temperature for 3 hours. Meanwhile, 80,000 PBMC from healthy donors (STEMCELL Technologies, Canada) cells in 80 μl of normal growth medium were seeded in each well of Greiner CELLSTAR V-bottom 96-well plates (Thermo Fisher Scientific, USA) and pre-incubated with 20 μl per well of standard growth medium supplemented with Batimastat (BB94, Abcam, UK) at 50 μM as positive control (for a final concentration of 10 μM in the resulting 100 μl sample volume), mouse IgG antibody (Thermo Fisher Scientific, USA) at 5 μg/ml as isotype control (for a final concentration of 1 μg/ml in the resulting 100 μl sample volume) or antibodies of the invention at 5 μg/ml (for a final concentration of 1 μg/ml in the resulting 100 μl sample volume) at 37° C., 5% CO2 for 30 minutes. […] Using an infinite M1000 (Tecan Group, Switzerland) microplate reader, the fluorescence of each well was collected at an excitation wavelength of 435 nm and an emission wavelength of 555 nm.

In the case of `CNC(=O)[C@H](Cc1ccccc1)NC(=O)[C@H](CC(C)C)[C@H](CSc1cccs1)C(=O)NO` [Batimastat], the inhibition at 10 µM in assay [1] was determined as 99.1%; in assay [2], 94.9%.
